Assays:
Experiment in all cases: relative viability (nuclei count vs DMSO), 5 days (fraction); higher = more cells survive
[1] = compound: C[As](C)SC[C@H](NC(=O)CC[C@H](N)C(=O)O)C(=O)NCC(=O)O [Darinaparsin] + Nc1nc2[nH]cc(CCc3ccc(C(=O)N[C@@H](CCC(=O)O)C(=O)O)cc3)c2c(=O)[nH]1 [Pemetrexed] (partner 0.2 µM)
Summary of the method: (§1)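 Dosing by pin tool came one day after lung cancer cell lines were seeded in 1536-well plates, using either one drug or a fixed anchor-drug dose plus five library-drug doses (not always all listed) in √10 steps. After 5 days, nuclei were counted on 4× images. Relative viability is treated-well nuclei count divided by vehicle-well nuclei count, and values are medians of duplicate plates.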

Darinaparsin + Foretinib = compound: C[As](C)SC[C@H](NC(=O)CC[C@H](N)C(=O)O)C(=O)NCC(=O)O [Darinaparsin] + COc1cc2c(Oc3ccc(NC(=O)C4(C(=O)Nc5ccc(F)cc5)CC4)cc3F)ccnc2cc1OCCCN1CCOCC1 [Foretinib] (partner 0.25 µM)
Summary of the method: as §1

Darinaparsin + Dasatinib = compound: C[As](C)SC[C@H](NC(=O)CC[C@H](N)C(=O)O)C(=O)NCC(=O)O [Darinaparsin] + Cc1nc(Nc2ncc(C(=O)Nc3c(C)cccc3Cl)s2)cc(N2CCN(CCO)CC2)n1 [Dasatinib] (partner 0.075 µM)
Summary of the method: as §1

[2] = compound: C[As](C)SC[C@H](NC(=O)CC[C@H](N)C(=O)O)C(=O)NCC(=O)O [Darinaparsin] + CC1(C)CCC(c2ccc(Cl)cc2)=C(CN2CCN(c3ccc(C(=O)NS(=O)(=O)c4ccc(N[C@H](CCN5CCOCC5)CSc5ccccc5)c(S(=O)(=O)C(F)(F)F)c4)cc3)CC2)C1 [Navitoclax] (partner 0.5 µM)
Summary of the method: as §1

| Cell Line | relative viability ([1]; first compound 0.08 µM) | relative viability ([1]; first compound 0.8 µM) | relative viability ([1]; first compound 2.53 µM) | relative viability ([1]; first compound 8 µM) | relative viability (Darinaparsin + Foretinib; first compound 0.08 µM) | relative viability (Darinaparsin + Foretinib; first compound 0.8 µM) | relative viability (Darinaparsin + Foretinib; first compound 2.53 µM) | relative viability (Darinaparsin + Foretinib; first compound 8 µM) | relative viability (Darinaparsin + Dasatinib; first compound 0.08 µM) | relative viability (Darinaparsin + Dasatinib; first compound 0.8 µM) | relative viability (Darinaparsin + Dasatinib; first compound 2.53 µM) | relative viability (Darinaparsin + Dasatinib; first compound 8 µM) | relative viability ([2]; first compound 0.08 µM) | relative viability ([2]; first compound 0.8 µM) | relative viability ([2]; first compound 2.53 µM) | relative viability ([2]; first compound 8 µM) |
| --- | --- | --- | --- | --- | --- | --- | --- | --- | --- | --- | --- | --- | --- | --- | --- | --- |
| NCI-H2228 | 0.379 | 0.322 | 0.325 | 0.427 | 1.42 | 0.935 | 0.949 | 0.891 | 0.71 | 0.606 | 0.447 | 0.686 | 0.856 | 0.996 | 1.02 | 0.825 |
| NCI-H441 | 0.264 | 0.239 | 0.279 | 0.246 | 1.2 | 1.25 | 1.07 | 0.902 | 0.6 | 0.581 | 0.558 | 0.737 | 0.773 | 0.593 | 0.615 | 0.962 |
| NCI-H460 | 0.0581 | 0.0587 | 0.0655 | 0.0643 | 1.04 | 1.04 | 1.03 | 1.33 | 0.632 | 0.478 | 0.473 | 0.721 | – | 1.05 | 0.978 | 1.91 |
| LU99A | 0.19 | 0.161 | 0.384 | 0.194 | 0.833 | 0.703 | 0.806 | 0.819 | 0.627 | 0.59 | 0.473 | 0.519 | 0.77 | 0.886 | 0.777 | 0.944 |
| NCI-H358 | 0.176 | 0.162 | 0.172 | 0.18 | 0.758 | 0.693 | 0.648 | 0.799 | 0.135 | 0.157 | 0.17 | 0.162 | – | – | – | – |
| IA-LM | – | – | – | – | 1.51 | 1.27 | 1.35 | 1.55 | – | – | – | – | 1.15 | 0.974 | 0.969 | 0.739 |
| UMC-11 | 0.884 | 0.863 | 0.778 | 0.878 | 1.16 | 1.03 | 0.974 | 1.25 | 0.711 | 0.473 | 0.401 | 0.578 | 0.339 | 0.313 | 0.305 | 0.311 |
| LXF-289 | 0.888 | 0.962 | 0.894 | 0.965 | 1.07 | 0.994 | 0.946 | 1.1 | 0.228 | 0.204 | 0.164 | 0.213 | 1 | 0.975 | 0.809 | 1.05 |
| NCI-H647 | 0.189 | 0.156 | 0.166 | 0.146 | 1.53 | 1.31 | 1.01 | 1.45 | 0.21 | 0.205 | 0.149 | 0.233 | 1.42 | 1.09 | 0.981 | 1.04 |
| NCI-H1651 | 0.621 | 0.594 | 0.569 | 0.748 | 0.951 | 0.885 | 0.851 | 0.777 | 0.51 | 0.476 | 0.365 | 0.416 | 1.11 | 1.01 | 0.863 | 0.999 |
| NCI-H838 | 0.272 | 0.223 | 0.245 | 0.247 | 1.19 | 1.03 | 0.856 | 1.23 | 0.301 | 0.286 | 0.271 | 0.338 | 1.51 | 1.15 | 1.15 | 1.5 |
